For experiment [1], the target named is human IRAK4 kinase domain (aa 154-460) (Homo sapiens (Human), UniProt Q9NWZ3). As to the kind of experiment: IRAK4 Enzymatic DELFIA Assay, Protocol B. It counts as biochemical. The text has this: IRAK4 Enzymatic DELFIA Assay, Protocol B.
For experiment [2], the system named is R848-induced TNFα production by human peripheral blood mononuclear cells (PBMCs). As to the kind of experiment: R848 Induced TNFα in Human PBMC Assay. It counts as cell-based. Particulars: Homo sapiens, PBMC, 3 h, read-out: R848-induced TNFa PBMC IC50 (nM).
For experiment [3], the target named is human IRAK4 FL (Full Length) (Homo sapiens (Human), UniProt Q9NWZ3). As to the kind of experiment: IRAK4 Enzymatic DELFIA Assay, Protocol A. In kind it is biochemical.
Chain of human IRAK4 FL (Full Length) (Q9NWZ3 whole entry, the tested form may be a part): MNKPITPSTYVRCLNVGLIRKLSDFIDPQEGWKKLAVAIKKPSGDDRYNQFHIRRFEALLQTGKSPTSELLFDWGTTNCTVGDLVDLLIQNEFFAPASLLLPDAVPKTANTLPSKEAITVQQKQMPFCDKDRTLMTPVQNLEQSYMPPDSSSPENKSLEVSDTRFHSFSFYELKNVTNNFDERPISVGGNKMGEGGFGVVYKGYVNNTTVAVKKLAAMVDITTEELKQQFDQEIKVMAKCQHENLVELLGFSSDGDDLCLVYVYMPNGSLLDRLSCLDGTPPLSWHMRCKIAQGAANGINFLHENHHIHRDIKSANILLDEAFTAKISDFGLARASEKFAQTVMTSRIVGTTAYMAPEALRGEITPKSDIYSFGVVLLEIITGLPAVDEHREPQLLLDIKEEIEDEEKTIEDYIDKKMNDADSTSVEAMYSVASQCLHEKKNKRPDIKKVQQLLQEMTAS
The mark [4] stands for this setting: human IRAK4 kinase domain (aa 154-460), 0.6 mM ATP (KM), read-out: IRAK4 DELFIA Protocol B IC50.
Setting [5] is: human IRAK4 FL, 0.6 mM ATP (KM), read-out: IRAK4 DELFIA Protocol A IC50.

The values below come from patent publication US10329302B2, “Bicyclic-fused heteroaryl or aryl compounds” (Pfizer Inc., priority 2014, dated 2019).

Like-named read-outs stand apart in the source and are kept apart here.

Chain of human IRAK4 kinase domain (aa 154-460) (Q9NWZ3 154-460): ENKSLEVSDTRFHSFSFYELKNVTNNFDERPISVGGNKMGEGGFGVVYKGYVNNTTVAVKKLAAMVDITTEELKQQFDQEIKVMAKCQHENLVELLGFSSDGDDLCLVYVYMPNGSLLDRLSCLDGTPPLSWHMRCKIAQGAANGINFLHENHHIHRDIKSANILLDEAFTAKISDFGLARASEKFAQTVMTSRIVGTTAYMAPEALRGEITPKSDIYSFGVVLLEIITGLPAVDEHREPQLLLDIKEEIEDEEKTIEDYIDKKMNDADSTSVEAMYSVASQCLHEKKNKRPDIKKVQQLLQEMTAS

`CC(C)Oc1cc2c(OC3CC[C@@H]4CN(C(=O)CC#N)C[C@H]34)ccnc2cc1C(N)=O` (single isomer, unassigned) [Example 71] came in with an IC50 in experiment [1] of 153 nM.

For the molecule `CC(C)Oc1cc2c(OC3C[C@@H]4C[C@H]3CN(C(=O)CC#N)C4)ccnc2cc1C(N)=O` (stereo in doubt) [Example 92, 4-{[(1S,5S,6S)-3-(cyanoacetyl)-3-azabicyclo[3.2.1]oct-6-yl]oxy}-6-(propan-2-yloxy)quinoline-7-carboxamide], in experiment [1] (setting [4]), the IC50 was 473 nM.

`CC(C)Oc1cc2c(OCC3CNC3)ccnc2cc1C(N)=O` [Example 1, 4-(azetidin-3-ylmethoxy)-6-(propan-2-yloxy)quinoline-7-carboxamide]: in experiment [1] (setting [4]), the IC50 is 2910 nM.

Regarding `CC(C)Oc1cc2c(O[C@@H]3C[C@H]4C[C@@H]3CN4)nccc2cc1C(N)=O` [Example 02, 1-[(1R,4R,5R)-2-azabicyclo[2.2.1]hept-5-yloxy]-7-(propan-2-yloxy)isoquinoline-6-carboxamide], the IC50 in experiment [1] (setting [4]) came out at 217 nM.

Consider `CC(C)Oc1cc2c(OC[C@H]3CCCNC3)ccnc2cc1C(N)=O` [Example 2, 4-[(3S)-piperidin-3-ylmethoxy]-6-(propan-2-yloxy)quinoline-7-carboxamide], for which the IC50 in experiment [1] (setting [4]) stood at 4500 nM.

For `CC(C)Oc1cc2c(OC[C@@H]3CCCNC3)ccnc2cc1C(N)=O` [Example 3, 4-[(3R)-piperidin-3-ylmethoxy]-6-(propan-2-yloxy)quinoline-7-carboxamide], the IC50 in experiment [1] (setting [4]) worked out at 2240 nM.

As to `CC(C)Oc1cc2c(OCC3CCNCC3)ccnc2cc1C(N)=O` [Example 4, 4-(piperidin-4-ylmethoxy)-6-(propan-2-yloxy)quinoline-7-carboxamide], in experiment [1] (setting [4]), the IC50 is 913 nM.

As for `CC(C)Oc1cc2c(OC[C@H]3[C@@H]4CNC[C@@H]43)ccnc2cc1C(N)=O` [Example 5, 4-[(1R,5S,6r)-3-azabicyclo[3.1.0]hex-6-ylmethoxy]-6-(propan-2-yloxy)quinoline-7-carboxamide], in experiment [1] (setting [4]), the IC50 was determined as 323 nM.

Turning to `CC(C)Oc1cc2c(OCC3COC3)ccnc2cc1C(N)=O` [Example 6, 4-(oxetan-3-ylmethoxy)-6-(propan-2-yloxy)quinoline-7-carboxamide], the IC50 in experiment [1] (setting [4]) was 618 nM.

Consider `CC(C)Oc1cc2c(OCC3CCCC3)ccnc2cc1C(N)=O` [Example 7, 4-(cyclopentylmethoxy)-6-(propan-2-yloxy)quinoline-7-carboxamide], for which the half-inhibitory concentration (IC50) in experiment [1] (setting [4]) amounted to 170 nM.

As to `CC(C)Oc1cc2c(OC(C)C3CCC3)ccnc2cc1C(N)=O` (stereo not drawn) [Example 8, 4-(1-cyclobutylethoxy)-6-(propan-2-yloxy)quinoline-7-carboxamide], in experiment [1] (setting [4]), the IC50 is 834 nM.

`CC(C)Oc1cc2c(OCC3CCC3)ccnc2cc1C(N)=O` [Example 9, 4-(cyclobutylmethoxy)-6-(propan-2-yloxy)quinoline-7-carboxamide]: the IC50 in experiment [1] (setting [4]) was determined as 598 nM.

For the molecule `CC(C)Oc1cc2c(OCC3CCOC3)ccnc2cc1C(N)=O` (stereo not drawn) [Example 10, 6-(propan-2-yloxy)-4-(tetrahydrofuran-3-ylmethoxy)quinoline-7-carboxamide], the IC50 in experiment [1] (setting [4]) was determined as 752 nM.

Take `CC(C)Oc1cc2c(OCC3CCCO3)ccnc2cc1C(N)=O` (stereo not drawn) [Example 11, 6-(propan-2-yloxy)-4-(tetrahydrofuran-2-ylmethoxy)quinoline-7-carboxamide]: the IC50 in experiment [1] (setting [4]) was determined as 3230 nM.

Consider `CC(C)Oc1cc2c(OCC3(C)COC3)ccnc2cc1C(N)=O` [Example 12, 4-[(3-methyloxetan-3-yl)methoxy]-6-(propan-2-yloxy)quinoline-7-carboxamide], for which the IC50 in experiment [1] (setting [4]) was found to be 1040 nM.

For `CC(C)Oc1cc2c(OCC3(C)CCC3)ccnc2cc1C(N)=O` [Example 13, 4-[(1-methylcyclobutyl)methoxy]-6-(propan-2-yloxy)quinoline-7-carboxamide], the IC50 in experiment [1] (setting [4]) was 383 nM.

On to `CC(C)Oc1cc2c(O[C@@H]3CC4CCC3C4)ccnc2cc1C(N)=O` (stereo partly drawn) [Example 14, 4-[(2R)-bicyclo[2.2.1]hept-2-yloxy]-6-(propan-2-yloxy)quinoline-7-carboxamide], for which the IC50 in experiment [1] (setting [4]) was 231 nM.

As to `CC(C)Oc1cc2c(OC[C@H]3CCCO3)ccnc2cc1C(N)=O` [Example 15, 6-(propan-2-yloxy)-4-[(2R)-tetrahydrofuran-2-ylmethoxy]quinoline-7-carboxamide], in experiment [1] (setting [4]), the IC50 is 2970 nM.

Take `CC(C)Oc1cc2c(OC3CC4CCC3C4)ccnc2cc1C(N)=O` (stereo not drawn) [Example 16, 4-(bicyclo[2.2.1]hept-2-yloxy)-6-(propan-2-yloxy)quinoline-7-carboxamide]: in experiment [1], inhibition was half-maximal at 386 nM (IC50).

Take `CC(C)Oc1cc2c(OC3C4CC5C(C4)C53)ccnc2cc1C(N)=O` (stereo not drawn) [Example 17, 6-(propan-2-yloxy)-4-(tricyclo[2.2.1.0~2,6~]hept-3-yloxy)quinoline-7-carboxamide]: the IC50 in experiment [1] is 476 nM.

As for `CC[C@@H]1[C@H](F)C(=O)N[C@@H]1COc1ncc(F)c2cc(C(N)=O)c(OC)cc12` [Example 360, 1-{[(2S,3S,4S)-3-ethyl-4-fluoro-5-oxopyrrolidin-2-yl]methoxy}-4-fluoro-7-methoxyisoquinoline-6-carboxamide], the IC50 in experiment [2] stood at 3.9 nM; in experiment [3] (setting [5]), 0.1 nM.

Consider `CC[C@@H]1[C@H](F)C(=O)N[C@@H]1COc1nccc2cc(C(N)=O)c(OC)c(F)c12` [Example 361, 1-{[(2S,3S,4S)-3-ethyl-4-fluoro-5-oxopyrrolidin-2-yl]methoxy}-8-fluoro-7-methoxyisoquinoline-6-carboxamide], for which the IC50 is 27 nM in experiment [2] and 4.8 nM in experiment [3] (setting [5]).

`CC[C@@H]1CC(=O)N[C@@H]1COc1ncc(F)c2cc(C(N)=O)c(OC)cc12` [Example 362, 1-{[(2S,3R)-3-ethyl-5-oxopyrrolidin-2-yl]methoxy}-4-fluoro-7-methoxyisoquinoline-6-carboxamide]: the IC50 came to 28 nM in experiment [2] and 1.1 nM in experiment [3] (setting [5]).

In the case of `CC[C@@H]1CC(=O)N[C@@H]1COc1nccc2cc(C(N)=O)c(OC)c(F)c12` [Example 363, 1-{[(2S,3R)-3-ethyl-5-oxopyrrolidin-2-yl]methoxy}-8-fluoro-7-methoxyisoquinoline-6-carboxamide], the IC50 in experiment [2] was determined as 110 nM; in experiment [3] (setting [5]), 11 nM.

As for `COc1cc2c(OC[C@H]3NC(=O)[C@@H]4[C@@H](C)[C@@H]43)ncc(F)c2cc1C(N)=O` [Example 364, 4-fluoro-7-methoxy-1-{[(1S,2S,5R)-6-methyl-4-oxo-3-azabicyclo[3.1.0]hex-2-yl]methoxy}isoquinoline-6-carboxamide], the IC50 amounted to 145 nM in experiment [2] and 16 nM in experiment [3] (setting [5]).

As to `COc1c(C(N)=O)cc2ccnc(OC[C@H]3NC(=O)[C@@H]4[C@@H](C)[C@@H]43)c2c1F` [Example 365, 8-fluoro-7-methoxy-1-{[(1S,2S,5R)-6-methyl-4-oxo-3-azabicyclo[3.1.0]hex-2-yl]methoxy}isoquinoline-6-carboxamide], the IC50 in experiment [2] came out at 724 nM; in experiment [3] (setting [5]), 187 nM.

Consider `COc1cc2c(OC[C@H]3NC(=O)C[C@H]3CF)nccc2cc1C(N)=O` [Example 366, 1-{[(2S,3R)-3-(fluoromethyl)-5-oxopyrrolidin-2-yl]methoxy}-7-methoxyisoquinoline-6-carboxamide], for which the IC50 is 91 nM in experiment [2] and 6.1 nM in experiment [3].

With `COc1cc2c(OC[C@H]3NC(=O)[C@@H](F)[C@H]3CF)nccc2cc1C(N)=O` [Example 367, 1-{[(2S,3R,4S)-4-fluoro-3-(fluoromethyl)-5-oxopyrrolidin-2-yl]methoxy}-7-methoxyisoquinoline-6-carboxamide], the IC50 was 14 nM in experiment [2] and 0.4 nM in experiment [3] (setting [5]).

With `COc1cc2c(OC[C@H]3NC(=O)[C@@H](F)[C@H]3C3CC3)nccc2cc1C(N)=O` [Example 368, 1-{[(2S,3S,4S)-3-cyclopropyl-4-fluoro-5-oxopyrrolidin-2-yl]methoxy}-7-methoxyisoquinoline-6-carboxamide], the IC50 in experiment [2] was found to be 10 nM; in experiment [3] (setting [5]), 0.3 nM.

For the molecule `COc1cc2c(OC[C@H]3NC(=O)[C@H](F)[C@H]3C3CC3)nccc2cc1C(N)=O` [Example 369, 1-{[(2S,3S,4R)-3-cyclopropyl-4-fluoro-5-oxopyrrolidin-2-yl]methoxy}-7-methoxyisoquinoline-6-carboxamide], the IC50 in experiment [2] stood at 45 nM; in experiment [3] (setting [5]), 3.7 nM.

For `COc1cc2c(OC[C@H]3NC(=O)[C@@H](F)[C@H]3CCF)nccc2cc1C(N)=O` [Example 370, 1-{[(2S,3S,4S)-4-fluoro-3-(2-fluoroethyl)-5-oxopyrrolidin-2-yl]methoxy}-7-methoxyisoquinoline-6-carboxamide], the IC50 in experiment [2] is 3.7 nM; in experiment [3] (setting [5]) it was 0.1 nM.

On to `CC(C)Oc1cc2c(OC[C@@H]3CCC(=O)N3)ncc(-c3cn(C)cn3)c2cc1C(N)=O` [Example 371, 4-(1-methyl-1H-imidazol-4-yl)-1-{[(2S)-5-oxopyrrolidin-2-yl]methoxy}-7-(propan-2-yloxy)isoquinoline-6-carboxamide], for which the IC50 in experiment [2] was determined as 604 nM; in experiment [3] (setting [5]) it was 7 nM.

`Cc1nc(-c2cnc(OC[C@@H]3CCC(=O)N3)c3cc(OC(C)C)c(C(N)=O)cc23)cn1C` [Example 372, 4-(1,2-dimethyl-1H-imidazol-4-yl)-1-{[(2S)-5-oxopyrrolidin-2-yl]methoxy}-7-(propan-2-yloxy)isoquinoline-6-carboxamide]: the half-maximal inhibitory concentration (IC50) in experiment [2] was 649 nM; in experiment [3] (setting [5]), 11 nM.

As to `Cc1nc(-c2cnc(OC[C@@H]3CCC(=O)N3)c3cc(OC(C)C)c(C(N)=O)cc23)c[nH]1` [Example 373, 4-(2-methyl-1H-imidazol-4-yl)-1-{[(2S)-5-oxopyrrolidin-2-yl]methoxy}-7-(propan-2-yloxy)isoquinoline-6-carboxamide], the values for the IC50 in experiment [2] and in experiment [3] (setting [5]) were 6160 nM and 35 nM, respectively.
